The experiment deals with Urokinase-type plasminogen activator (Homo sapiens, UniProt P00749). Kind of experiment: Enzyme Assay. As to conditions: 24 °C. The source says:
Inhibition constant of the compound against Plasminogen activator urokinase

Experimental findings from BindingDB's records for patent US8476306 (The Medicines, 2013) are described below.

For orientation: Ki means a dissociation constant, usually derived from enzyme kinetics or from competition with a known ligand. Low readings indicate tighter binding, high ones weaker binding. With `N=C(N)c1ccc(CNC(=O)CNC(=O)[C@@H](CO)NS(=O)(=O)Cc2ccc(CN)cc2)cc1` [US8476306, 6.11], the Ki came out at 120 nM. The same measure for `N=C(N)c1ccc(CNC(=O)CNC(=O)[C@@H](CO)NS(=O)(=O)Cc2ccncc2)cc1` [US8476306, 6.24]: 100 nM; for `N=C(N)c1ccc(CNC(=O)[C@H](CCCCN)NC(=O)[C@@H](CO)NS(=O)(=O)Cc2ccccc2)cc1` [US8476306, 8.1]: 24 nM; for `N=C(N)c1ccc(CNC(=O)[C@H](CCCN=C(N)N)NC(=O)[C@@H](CO)NS(=O)(=O)Cc2ccccc2)cc1` [US8476306, 8.2]: 8.9 nM.
